Columns and labels:
[1] = test system: Fas; experiment: Fas expression at the cell surface by flow cytometry, Jurkat cells; format: cell-based; settings: Jurkat human leukemia T cells, 100 μg/ml sequence, 48 h, treated vs control cells
Method: (§1) Cancer cells and PBMCs were seeded in 6 well flat-bottom microplates and were maintained at 37° C. in a 5% CO2 atmosphere. Unless stated otherwise, 2×10^5 cells/ml were incubated for 48 h with 0 μg/ml (control) or 100 μg/ml ([…]) (treated) of the sequences.
(§2) Fas and FasL expression were measured by flow cytometry using anti-Fas FITC-conjugated monoclonal antibodies and anti-FasL PE-conjugated monoclonal antibodies in a FACScalibur Flow Cytometer (Becton Dickinson, San Jose, Calif., USA) using the CELLQuest program (Becton Dickinson).
(§3) Results are expressed as percentage (%) increase in the expression of Fas and of FasL measured on treated cells compared to control cells.
(§4) Jurkat human leukemia T cells are an atypical multi-drug resistant human suspension tumor cell model.

[2] = test system: FasL; experiment: FasL expression at the cell surface by flow cytometry, Jurkat cells; format: cell-based; settings: Jurkat human leukemia T cells, 100 μg/ml sequence, 48 h, treated vs control cells
Method: as §1, §2, §3, §4

[3] = test system: Fas; experiment: Fas expression at the cell surface by flow cytometry, PBMCs; format: cell-based, human; settings: 100 μg/ml sequence, 48 h, treated vs control cells
Method: (§5) Peripheral blood mononuclear cells (hereinafter, “PBMCs”) were isolated from human blood by Ficoll-Hypaque (Amersham Pharmacia Biotech, Baie d'Urfée, Québec, Canada) density gradient centrifugation.
as §1, §2, §3

[4] = test system: FasL; experiment: FasL expression at the cell surface by flow cytometry, PBMCs; format: cell-based, human; settings: 100 μg/ml sequence, 48 h, treated vs control cells
Method: as §5, §1, §2, §3

[5] = test system: Fas; experiment: Fas expression at the cell surface by flow cytometry, T-24 cells; format: cell-based, human; settings: T-24 bladder cancer cells, 100 μg/ml sequence, 48 h, treated vs control cells
Method: as §1, §2, §3
(§6) T-24 bladder cancer cells are a p53 mutated human cell line T-24 cells (1.0×10^5 cells/ml) were incubated with the 6 base sequences shown in Table 4.

[6] = test system: FasL; experiment: FasL expression at the cell surface by flow cytometry, T-24 cells; format: cell-based, human; settings: T-24 bladder cancer cells, 100 μg/ml sequence, 48 h, treated vs control cells
Method: as §1, §2, §3, §6

[7] = test system: Fas; experiment: Fas expression at the cell surface by flow cytometry, UMUC-3 cells; format: cell-based, human; settings: UMUC-3 bladder cancer cells, 100 μg/ml sequence, 48 h, treated vs control cells
Method: as §1, §2, §3
(§7) UMUC-3 bladder cancer cells are a P-glycoprotein overexpressing human cell line.

[8] = test system: FasL; experiment: FasL expression at the cell surface by flow cytometry, UMUC-3 cells; format: cell-based, human; settings: UMUC-3 bladder cancer cells, 100 μg/ml sequence, 48 h, treated vs control cells
Method: as §1, §2, §3, §7

[9] = test system: Fas; experiment: Fas expression at the cell surface by flow cytometry, OVCAR-3 cells; format: cell-based, human; settings: OVCAR-3 ovarian cancer cells, 100 μg/ml sequence, 48 h, treated vs control cells
Method: as §1, §2, §3
(§8) OVCAR-3 ovarian cancer cells are a p53 mutated, p21/waf-1/Cip deleted, metastatic human solid tumor model.

[10] = test system: FasL; experiment: FasL expression at the cell surface by flow cytometry, OVCAR-3 cells; format: cell-based, human; settings: OVCAR-3 ovarian cancer cells, 100 μg/ml sequence, 48 h, treated vs control cells
Method: as §1, §2, §3, §8

[11] = test system: Fas; experiment: Fas expression at the cell surface by flow cytometry, SK-OV-3 cells; format: cell-based, human; settings: SK-OV-3 ovarian cancer cells, 100 μg/ml sequence, 48 h, treated vs control cells
Method: as §1, §2, §3
(§9) SK-OV-3 ovarian cancer cells are a p53 mutated, p21/waf-1/Cip deleted, p15^ink4B,p16^ink4 deleted metastatic human solid tumor model.

[12] = test system: FasL; experiment: FasL expression at the cell surface by flow cytometry, SK-OV-3 cells; format: cell-based, human; settings: SK-OV-3 ovarian cancer cells, 100 μg/ml sequence, 48 h, treated vs control cells
Method: as §1, §2, §3, §9

[13] = test system: Fas; experiment: Fas expression at the cell surface by flow cytometry, LNCaP cells; format: cell-based, human; settings: LNCaP prostate cancer cells, 100 μg/ml sequence, 48 h, treated vs control cells
Method: as §1, §2, §3
(§10) LNCaP prostate cancer cells are a TGF-beta 1 receptor negative, […], metastatic human solid tumor model.

[14] = test system: FasL; experiment: FasL expression at the cell surface by flow cytometry, LNCaP cells; format: cell-based, human; settings: LNCaP prostate cancer cells, 100 μg/ml sequence, 48 h, treated vs control cells
Method: as §1, §2, §3, §10

[15] = test system: Fas; experiment: Fas expression at the cell surface by flow cytometry, MCF-7 cells; format: cell-based, human; settings: MCF-7 breast cancer cells, 100 μg/ml sequence, 48 h, treated vs control cells
Method: as §1, §2, §3
(§11) MCF-7 human breast cancer cells are a caspase-3 negative, estrogen-dependent human solid tumor model.

[16] = test system: FasL; experiment: FasL expression at the cell surface by flow cytometry, MCF-7 cells; format: cell-based, human; settings: MCF-7 breast cancer cells, 100 μg/ml sequence, 48 h, treated vs control cells
Method: as §1, §2, §3, §11

Row | Sequence | % INCREASE Fas [1] [%] | % INCREASE FasL [2] [%] | % INCREASE Fas [3] [%] | % INCREASE FasL [4] [%] | % INCREASE Fas [5] [%] | % INCREASE FasL [6] [%] | % INCREASE Fas [7] [%] | % INCREASE FasL [8] [%] | % INCREASE Fas [9] [%] | % INCREASE FasL [10] [%] | % INCREASE Fas [11] [%] | % INCREASE FasL [12] [%] | % INCREASE Fas [13] [%] | % INCREASE FasL [14] [%] | % INCREASE Fas [15] [%] | % INCREASE FasL [16] [%]
1 | AAGTAA [SEQ ID NO:7] | −4 | −21 | 13 | −26 | 16 | −10 | 6 | −1 | 16 | −2 | −12 | −22 | 0 | −16 | 12 | 21
2 | ATGTAT [SEQ ID NO:10] | 246 | 393 | 377 | 457 | 90 | 150 | 42 | 95 | 93 | 114 | 34 | 33 | 44 | 68 | 129 | 214
3 | CCGTCC [SEQ ID NO:8] | 107 | 151 | 1046 | 1147 | 282 | 459 | 55 | 149 | 83 | 95 | 58 | 32 | 0 | 311 | 200 | 322
4 | CTGTCT [SEQ ID NO:11] | 203 | 413 | 310 | 476 | 107 | 165 | 45 | 156 | 52 | 93 | 15 | 26 | 17 | 55 | 73 | 128
5 | GGAAGG [SEQ ID NO:14] | 67 | 88 | 112 | 162 | 46 | 14 | 1 | 8 | 15 | 1 | −15 | −31 | 26 | −4 | 62 | 84
6 | GGCCGG [SEQ ID NO:15] | 75 | 41 | 6 | −29 | 56 | 18 | 23 | 58 | 19 | −2 | 0 | −27 | 12 | −4 | 63 | 78
7 | GGTGGG [SEQ ID NO:4] | 61 | 22 | 57 | 59 | 106 | 29 | 62 | 113 | 41 | 14 | −1 | −17 | 21 | 8 | 106 | 110
8 | GGTTGG [SEQ ID NO:13] | 99 | 86 | −3 | −32 | 75 | 25 | 47 | 98 | 22 | 10 | 16 | −3 | 23 | −3 | 99 | 83
9 | GTGTGT [SEQ ID NO:2] | 52 | 43 | 94 | 99 | 93 | 77 | 72 | 154 | 77 | 69 | 60 | 24 | 34 | 5 | 155 | 135
10 | TCGTTC [SEQ ID NO:12] | 121 | 75 | 597 | 847 | 105 | 74 | 47 | 112 | 126 | 224 | 9 | −3 | 111 | 171 | 56 | 98
11 | TGGTTG [SEQ ID NO:9] | 362 | 952 | 1043 | 1322 | 180 | 397 | 143 | 300 | 221 | 270 | 63 | 53 | 184 | 241 | 255 | 481
12 | TGTGTG [SEQ ID NO:1] | 52 | 93 | 126 | 260 | 84 | 213 | 72 | 112 | 64 | 70 | 49 | 37 | 29 | 40 | 122 | 121
13 | TTGTTT [SEQ ID NO:6] | 126 | 140 | 338 | 441 | 116 | 152 | 57 | 132 | 65 | 98 | 41 | 24 | 40 | 73 | 143 | 159
